This note sets out measurements from US10323022B2, “Pyrrolidinyl urea, pyrrolidinyl thiourea and pyrrolidinyl guanidine compounds as TrkA kinase inhibitors” (Array BioPharma Inc., priority 2011, dated 2019).

SMILES strings stand for the structures. Structures can show the parent of a compound that is named as a salt.

One may read the IC50 as the concentration at which inhibition is half-maximal. A low value points to greater potency.

Chain of TrkA (P04629 33-796): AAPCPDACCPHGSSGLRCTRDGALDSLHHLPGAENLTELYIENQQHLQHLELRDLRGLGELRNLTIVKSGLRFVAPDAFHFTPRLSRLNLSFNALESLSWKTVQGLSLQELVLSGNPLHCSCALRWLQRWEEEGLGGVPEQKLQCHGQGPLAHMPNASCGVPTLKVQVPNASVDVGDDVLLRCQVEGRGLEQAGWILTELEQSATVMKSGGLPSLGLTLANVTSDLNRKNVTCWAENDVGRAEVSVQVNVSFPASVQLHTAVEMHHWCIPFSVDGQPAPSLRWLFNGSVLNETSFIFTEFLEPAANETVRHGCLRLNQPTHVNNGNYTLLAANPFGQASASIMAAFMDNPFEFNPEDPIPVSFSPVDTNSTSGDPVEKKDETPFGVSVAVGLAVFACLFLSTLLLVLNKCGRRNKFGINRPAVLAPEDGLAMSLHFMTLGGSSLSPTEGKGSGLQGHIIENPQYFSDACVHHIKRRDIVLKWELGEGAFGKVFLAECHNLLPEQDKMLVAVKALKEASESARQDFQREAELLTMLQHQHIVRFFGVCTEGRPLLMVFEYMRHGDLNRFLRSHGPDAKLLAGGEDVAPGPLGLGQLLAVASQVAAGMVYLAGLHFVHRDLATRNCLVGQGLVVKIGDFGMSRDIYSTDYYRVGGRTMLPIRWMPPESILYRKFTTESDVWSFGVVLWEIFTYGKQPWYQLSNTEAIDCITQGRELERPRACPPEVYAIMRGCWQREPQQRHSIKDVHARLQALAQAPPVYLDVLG

In the test the target is TrkA (Homo sapiens (Human), UniProt P04629). Put plainly: TrkA Omnia Assay. To be noted: averaged IC50; 20 nM enzyme, 500 μM ATP, 10 μM peptide substrate. It is filed as biochemical. The gist of the method:
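Continuous fluorescent kinase read-out (ex 360 nm, em 485 nm) over 70 min, with initial rates fitted to 4- or 5-parameter logistic curves for IC50. Final conditions: 500 μM ATP, 10 μM Omnia Tyr Peptide #4, 20 nM TrkA, MOPS pH 7.5 buffer with MgCl2 and Triton X-100; enzyme and compound preincubated 10 min at ambient temperature.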
`COCC(C(=O)O)N1C[C@@H](NC(=O)Nc2c3c(nn2-c2ccccc2)CCC3)[C@H](c2ccc(F)c(F)c2)C1` (stereo partly drawn) [Example 262, 2-((3R,4S)-3-(3,4-difluorophenyl)-4-(3-(2-phenyl-2,4,5,6-tetrahydrocyclopenta[c]pyrazol-3-yl)ureido)pyrrolidin-1-yl)-3-methoxypropanoic acid hydrochloride] returned an IC50 of 1000 to 10000 nM.

As to `COCCN1C[C@@H](NC(=O)Nc2c(Cl)c(OC[C@@H](C)O)nn2-c2ccccc2)[C@H](c2cc(F)cc(F)c2)C1` [Example 373, 1-(4-chloro-3-((R)-2-hydroxypropoxy)-1-phenyl-1H-pyrazol-5-yl)-3-((3S,4R)-4-(3,5-difluorophenyl)-1-(2-methoxyethyl)pyrrolidin-3-yl)urea], the IC50 was less than 100 nM.

Take `C[C@H]1[C@@H](c2ccccc2)C(NC(=O)Nc2c3c(nn2-c2ccccc2)CCC3)CN1CC(F)(F)F` (stereo partly drawn) [Example 274, (R,S)-1-((3β,4α,5α)-5-methyl-4-phenyl-1-(2,2,2-trifluoroethyl)pyrrolidin-3-yl)-3-(2-phenyl-2,4,5,6-tetrahydrocyclopenta[c]pyrazol-3-yl)urea]: the IC50 lay within 100 to 1000 nM. With `COCCN1C[C@@H](NC(=O)Nc2c(C)c(-c3cnn(C)c3)nn2-c2cccc(Cl)c2F)[C@H](c2ccc(F)cc2)C1` [Example 323], the IC50 is less than 100 nM. As for `COCCN1C[C@@H](NC(=O)Nc2c(C)c(-c3cnc(C)s3)nn2-c2ccccc2)[C@H](c2ccc(F)c(F)c2)C1` [Example 510, 1-((3S,4R)-4-(3,4-difluorophenyl)-1-(2-methoxyethyl)pyrrolidin-3-yl)-3-(4-methyl-3-(2-methylthiazol-5-yl)-1-phenyl-1H-pyrazol-5-yl)urea], the figure is less than 100 nM; as for `COCCN1C[C@@H](NC(=O)Nc2c(-c3ccccc3)nn(CC(F)(F)F)c2C)[C@H](c2ccc(F)c(F)c2)C1` [Example 643, 1-((3S,4R)-4-(3,4-difluorophenyl)-1-(2-methoxyethyl)pyrrolidin-3-yl)-3-(5-methyl-3-phenyl-1-(2,2,2-trifluoroethyl)-1H-pyrazol-4-yl)urea], less than 100 nM; as for `CCOc1nn(-c2ccccc2)c(NC(=O)N[C@@H]2CN(CCOC)C[C@H]2c2ccc(F)c(F)c2)c1Cl` [Example 356, 1-(4-chloro-3-ethoxy-1-phenyl-1H-pyrazol-5-yl)-3-((3S,4R)-4-(3,4-difluorophenyl)-1-(2-methoxyethyl)pyrrolidin-3-yl)urea], less than 100 nM. As for `COCCN1C[C@@H](NC(=O)Nc2c(C)c(-c3cnn(C)c3)nn2-c2ccccc2)[C@H](c2cc(F)c(F)c(F)c2)C1` [Example 443, 1-(1′,4-dimethyl-1-phenyl-1H, 1′H-[3,4′-bipyrazol]-5-yl)-3-((3S,4R)-4-(3,4,5-trifluorophenyl)-1-(2-methoxyethyl)pyrrolidin-3-yl)urea], the figure is less than 100 nM; as for `COCCN1C[C@@H](NC(=O)Nc2c(C)c(-c3cnn(C(C)C)c3)nn2-c2ccccc2)[C@H](c2ccc(F)c(F)c2)C1` [Example 503, 1-((3S,4R)-4-(3,4-difluorophenyvl)-1-(2-methoxyethyl)pyrrolidin-3-yl)-3-(1′-isopropyl-4-methyl-1-phenyl-1H, 1′H-[3,4′-bipyrazol]-5-yl)urea], less than 100 nM; as for `COCCN1C[C@@H](NC(=O)Nc2c(C)c(-c3cnn(CC(F)(F)F)c3)nn2-c2ccccc2)[C@H](c2ccc(F)c(F)c2)C1` [Example 499, 1-((3S,4R)-4-(3,4-difluorophenyl)-1-(2-methoxyethyl)pyrrolidin-3-yl)-3-(4-methyl-1-phenyl-1′-(2,2,2-trifluoroethyl)-1H, 1′H-[3,4′-bipyrazol]-5-yl)urea], less than 100 nM.

In the case of `COCCN1C[C@@H](NC(=O)Nc2cc(C3CCCC3)nn2-c2ccccc2)[C@H](c2ccccc2)C1` (relative stereo) [Example 24, 1-(3-cyclopentyl-1-phenyl-1H-pyrazol-5-yl)-3-(trans-1-(2-methoxyethyl)-4-phenylpyrrolidin-3-yl)urea], the IC50 is less than 100 nM. Then `COCCN1C[C@@H](NC(=O)Nc2c(C)c(-c3nc(C(F)(F)F)no3)nn2-c2ccccc2)[C@H](c2ccc(F)cc2)C1` [Example 300, 1-((3S,4R)-4-(4-fluorophenyl)-1-(2-methoxyethyl)pyrrolidin-3-yl)-3-(4-methyl-1-phenyl-3-(3-(trifluoromethyl)-1,2,4-oxadiazol-5-yl)-1H-pyrazol-5-yl)urea], with less than 100 nM; and `COCCN1C[C@@H](NC(=O)Nc2c(C)c([C@H]3C[C@@H](O)C3)nn2-c2ccccc2)[C@H](c2ccc(F)cc2)C1` [Example 454, 1-((3S,4R)-4-(4-fluorophenyl)-1-(2-methoxyethyl)pyrrolidin-3-yl)-3-(3-(cis-3-hydroxycyclobutyl)-4-methyl-1-phenyl-1H-pyrazol-5-yl)urea], with less than 100 nM.

`COCCN1C[C@@H](NC(=O)Nc2c(Br)c(OC[C@@H](C)O)nn2-c2ccccc2)[C@H](c2ccc(F)c(F)c2)C1` [Example 375, 1-(4-bromo-3-((R)-2-hydroxypropoxy)-1-phenyl-1H-pyrazol-5-yl)-3-((3S,4R)-4-(3,4-difluorophenyl)-1-(2-methoxyethyl)pyrrolidin-3-yl)urea]: the IC50 is less than 100 nM. As for `COCCN1C[C@@H](NC(=O)Nc2c(C)c(-c3cccnc3)nn2-c2ccccc2)[C@H](c2ccc(F)c(F)c2)C1` [Example 486, 1-((3S,4R)-4-(3,4-difluorophenyl)-1-(2-methoxyethyl)pyrrolidin-3-yl)-3-(4-methyl-1-phenyl-3-(pyridin-3-yl)-1H-pyrazol-5-yl)urea], the figure is less than 100 nM; as for `COCCN1C[C@@H](NC(=O)Nc2c3c(nn2-c2ccccc2)CN(C(=O)OC(C)(C)C)C3)[C@H](c2ccccc2)C1` [Example 79, tert-butyl 3-(3-((3S,4R)-1-(2-methoxyethyl)-4-phenylpyrrolidin-3-yl)ureido)-2-phenyl-4,6-dihydropyrrolo[3,4-c] pyrazole-5(2H)-carboxylate], 1000 to 10000 nM; as for `CCn1nc(-c2ccccc2)c(NC(=O)N[C@@H]2CN(CCOC)C[C@H]2c2ccc(F)c(F)c2)c1C` [Example 644, 1-((3S,4R)-4-(3,4-difluorophenyl)-1-(2-methoxyethyl)pyrrolidin-3-yl)-3-(1-ethyl-5-methyl-3-phenyl-1H-pyrazol-4-yl)urea], less than 100 nM. As for `COCCN1C[C@@H](NC(=O)Nc2c(C)c(-c3cc(C)n(C)n3)nn2-c2ccccc2)[C@H](c2ccc(F)c(F)c2)C1` [Example 305, 1-((3S,4R)-4-(3,4-difluorophenyl)-1-(2-methoxyethyl)pyrrolidin-3-yl)-3-(1′,4,5′-trimethyl-1-phenyl-1H,1′H-[3,3′-bipyrazol]-5-yl)urea], the IC50 was less than 100 nM. Then `COCCN1C[C@@H](NC(=O)Nc2c(C)c(-c3ccccc3)nn2-c2ccccc2)[C@H](c2cc(F)c(F)c(F)c2)C1` [Example 330, 1-((3S,4R)-4-(3,4,5-trifluorophenyl)-1-(2-methoxyethyl)pyrrolidin-3-yl)-3-(4-methyl-1,3-diphenyl-1H-pyrazol-5-yl)urea], with less than 100 nM; and `COCCOc1nn(-c2ccccc2)c(NC(=O)N[C@@H]2CN(CC#N)C[C@H]2c2ccc(F)c(F)c2)c1C` [Example 187, 1-((3S,4R)-1-(cyanomethyl)-4-(3,4-difluorophenyl)pyrrolidin-3-yl)-3-(3-(2-methoxyethoxy)-4-methyl-1-phenyl-1H-pyrazol-5-yl)urea], with 100 to 1000 nM.

With `COCCN1C[C@@H](NC(=O)Nc2c(Br)c(-c3ccccc3)nn2-c2ccccc2)[C@H](c2ccc(F)c(F)c2)C1` [Example 63, 1-(4-bromo-1,3-diphenyl-1H-pyrazol-5-yl)-3-((3S,4R)-4-(3,4-difluorophenyl)-1-(2-methoxyethyl)pyrrolidin-3-yl)urea], the IC50 was less than 100 nM. As for `COCCCc1nn(-c2ccccc2)c(NC(=O)N[C@@H]2CN(CCOC)C[C@H]2c2cc(F)cc(F)c2)c1C` [Example 281, 1-((3S,4R)-4-(3,5-difluorophenyl)-1-(2-methoxyethyl)pyrrolidin-3-yl)-3-(3-(3-methoxypropyl)-4-methyl-1-phenyl-1H-pyrazol-5-yl)urea], the figure is less than 100 nM; as for `COCCN1C[C@@H](NC(=O)Nc2c(Br)c(-c3cnn(C)c3)nn2C)[C@H](c2ccc(F)c(F)c2)C1` [Example 566, 1-(4-bromo-1,1′-dimethyl-1H, 1′H-[3,4′-bipyrazol]-5-yl)-3-((3S,4R)-4-(3,4-difluorophenyl)-1-(2-methoxyethyl)pyrrolidin-3-yl)urea], 100 to 1000 nM.

Take `Cc1c(-c2cnc(N)nc2)nn(-c2ccccc2)c1NC(=O)N[C@H]1CN(CC(F)(F)F)C[C@@H]1c1ccccc1` [Example 522, 1-(3-(2-aminopyrimidin-5-yl)-4-methyl-1-phenyl-1H-pyrazol-5-yl)-3-((3R,4S)-4-phenyl-1-(2,2,2-trifluoroethyl)pyrrolidin-3-yl)urea bis(2,2,2-trifluoroacetate)]: the IC50 is less than 100 nM. `COCCN1C[C@@H](NC(=O)Nc2c(C)c(-c3ccn(C)c(=O)c3)nn2-c2ccccc2)[C@H](c2ccc(F)c(Cl)c2)C1` (relative stereo) [Example 304, 1-(trans-4-(3-chloro-4-fluorophenyl)-1-(2-methoxyethyl)pyrrolidin-3-yl)-3-(4-methyl-3-(1-methyl-2-oxo-1,2-dihydropyridin-4-yl)-1-phenyl-1H-pyrazol-5-yl)urea] yielded an IC50 of less than 100 nM. As for `COCCN1C[C@@H](NC(=O)Nc2c(C)c(COC)nn2-c2ccccc2)[C@H](c2cc(F)cc(F)c2)C1` [Example 124, 1-((3S,4R)-4-(3,5-difluorophenyl)-1-(2-methoxyethyl)pyrrolidin-3-yl)-3-(3-(methoxy-methyl)-4-methyl-1-phenyl-1H-pyrazol-5-yl)urea], the figure is less than 100 nM; as for `COCCN1C[C@@H](NC(=O)Nc2cc(C(C)C)nn2-c2ccccc2)[C@H](c2cccc(Cl)c2)C1` (relative stereo) [Example 42, trans-1-(4-(3-chlorophenyl)-1-(2-methoxyethyl)pyrrolidin-3-yl)-3-(3-isopropyl-1-phenyl-1H-pyrazol-5-yl)urea], less than 100 nM.
